Laboratory results reported in patent US20240124454A1, “TRICYCLIC COMPOUND AND USE THEREOF” (NANJING ZAIMING PHARMACEUTICAL CO., LTD., priority 2020, published 2024).

Tests used:
[1] = target: CYP2D6 (Homo sapiens (Human), UniProt P10635); experiment: CYP2D6 inhibition in human liver microsomes (dextromethorphan substrate); type: in vitro ADME; conditions: human liver microsome
Protocol: Test Example 7. Inhibitory Effect of Compound of the Present Application on Enzymatic Activity of CYP2C9, CYP2D6, and CYP3A4
The inhibition of CYP2C9, CYP2D6, and CYP3A4 activity by the compound of the present application was determined using the following method.
I. Experimental materials and instruments • 1. Human liver microsome (Corning 452117) • 2. NADPH (Solarbio 705Y021) • 3. Positive substrates diclofenac (Sigma SLBV3438), dextromethorphan (TRC 3-EDO-175-1), and midazolam (Cerilliant FE01161704) • 4. Positive inhibitors sulfaphenazole (D. Ehrenstorfer GmbH 109012), quinidine (TCI WEODL-RE), and ketoconazole (Sigma 100M1091V) • 5. AB Sciex Triple Quad 5500 liquid chromatography-mass spectrometry system
(§1) 1. Preparation of 100 mM phosphate-buffered saline (PBS): 7.098 g Na2HPO4 was weighed. 500 mL pure water was added. The mixture was dissolved by sonication to give solution A. 3.400 g KH2PO4 was weighed. 250 mL pure water was added. The mixture was dissolved by sonication to give solution B. The solution A was placed in a stirrer, and the solution B was slowly added until the pH reached 7.4, so that the 100 mM PBS buffer was prepared.
2. A 10 mM NADPH solution was prepared with a 100 mM PBS buffer. A 10 mM stock solution of the compound of the present application was diluted with DMSO to give a compound working solution at a concentration of 200×(6000, 2000, 600, 200, 60, 20, and 0 μM). The positive inhibitor stock solution was diluted with DMSO to give a positive inhibitor working solution at a concentration of 200×(sulfaphenazole, 1000, 300, 100, 30, 10, 3, and 0 μM; quinidine/ketoconazole, 100, 30, 10, 3, 1, 0.3, and 0 μM). Substrate working solutions (120 μM diclofenac, 400 μM dextromethorphan, and 200 μM midazolam) at a concentration of 200× were prepared with water, acetonitrile, or acetonitrile/methanol.
3. 2 μL of 20 mg/mL liver microsome solution, 1 μL of substrate working solution, 1 μL of compound working solution, and 176 μL of PBS buffer were taken, mixed well, and placed in a 37° C. water bath for pre-incubation for 15 min. 1 μL of sulfaphenazole, quinidine, or ketoconazole working solution was added to the positive control group instead of the compound working solution. At the same time, 10 mM NADPH solution was placed together in the 37° C. water bath for pre-incubation for 15 min. After 15 min, 20 μL of NADPH was added to each well to initiate the reaction. The mixture was incubated at 37° C. for 5 min (CYP2C9), 20 min (CYP2D6), or 5 min (CYP3A4). All incubated samples were in duplicate. After incubation for the corresponding period of time, 400 μL of icy methanol containing internal standard was added to all samples to stop the reaction. The mixture was vortexed, mixed well, and centrifuged for 40 min at 4° C. at 3220 g. 100 μL of the supernatant was transferred to a feeding plate after the centrifugation was completed, and 100 μL ultrapure water was added. The mixture was well mixed for LC-MS/MS analysis.
The reduction of metabolite production in the treatment groups versus the control group was compared by the peak area ratios of the sample to the internal standard, and the IC50 value was calculated using Excel XLfit 5.3.1.3.
Percentages of remaining activity were calculated according to the following formula:
Remaining activity%=peak area ratio of metabolite to internal standardtest sample/peak area ratio of metabolite to internal standardblank solvent×100%.

[2] = Metabolic stability in human liver microsomes; type: in vitro ADME; conditions: pH 7.4, 1 μM compound, 0.5 mg/mL microsome, NADPH, read-out: Human liver microsome stability t1/2
Protocol: Test Example 4. Determination of Metabolic Stability of Compound of the Present Application in Liver Microsomes
The metabolic stability of the compound of the present application in liver microsomes was determined using the following method.
I. Experimental materials and instruments • 1. Human liver microsome (Corning 452117), beagle dog liver microsome (XENOTECH D1000), SD rat liver microsome (XENOTECH R1000), and CD-i mouse liver microsome (XENOTECH M1000) • 2. Na2HPO4 (Tianjin Guangfu Fine Chemical Research Institute 20180130) • 3. KH2PO4 (Tianjin Guangfu Fine Chemical Research Institute 20180920) • 4. MgCl2 (Tianjin Guangfu Fine Chemical Research Institute 20191216) • 5. NADPH (Solarbio 1216C022) • 6. Positive control compound verapamil (Sigma MKBV4993V) • 7. AB Sciex API4000 liquid chromatography-mass spectrometry system
as §1, with “of 100 mMV phosphate-buffered saline” for “of 100 mM phosphate-buffered saline”
2. Preparation of reaction system
The reaction system was prepared as follows:
3. The reaction system was pre-incubated in a 37° C. water bath for 10 min. 40 μL of 10 mM NADPH solution (NADPH was dissolved by 100 mM phosphate-buffered saline) was added to the reaction system with a final concentration of NADPH being 1 mM. A negative control was made by replacing the NADPH solution with 40 μL phosphate-buffered saline. The negative control was used to exclude the effect of chemical stability of the compound itself.
4. The reaction was initiated by adding 4 μL of 100 μM of the compound of the present application and verapamil, the positive control compound, to the reaction system with a final concentration of the compound being 1 μM.
5. After being uniformly mixed in a vortex oscillator, 50 μL incubation sample was respectively taken out at 0.5, 15, 30, 45, and 60 min, and the reaction was stopped by 200 μL glacial acetonitrile containing an internal standard. The sample was centrifuged at 3220 g for 45 min. 90 μL of the supernatant was transferred to a feeding plate after the centrifugation was completed, and 90 μL ultrapure water was added. The mixture was well mixed for LC-MS/MS analysis.
All data were calculated by Microsoft Excel software. The peak area was detected through an extracted ion chromatogram. The in vitro half-life (t1/2) of the compound was determined by linear fitting of the natural logarithm of compound elimination percentage over time.
In vitro half-life (t1/2) was calculated by the slope: […]
The in vitro intrinsic clearance (in μL/min/mg protein) was calculated using the following formula:
in vitro CLint=k×volume of incubation (μL)/amount of proteins (mg)
CLint was intrinsic clearance; k was an elimination rate constant; volume of incubation was the incubation volume (μL); amount of proteins was the amount of protein (mg)

Chain of CYP2D6 (P10635 whole entry): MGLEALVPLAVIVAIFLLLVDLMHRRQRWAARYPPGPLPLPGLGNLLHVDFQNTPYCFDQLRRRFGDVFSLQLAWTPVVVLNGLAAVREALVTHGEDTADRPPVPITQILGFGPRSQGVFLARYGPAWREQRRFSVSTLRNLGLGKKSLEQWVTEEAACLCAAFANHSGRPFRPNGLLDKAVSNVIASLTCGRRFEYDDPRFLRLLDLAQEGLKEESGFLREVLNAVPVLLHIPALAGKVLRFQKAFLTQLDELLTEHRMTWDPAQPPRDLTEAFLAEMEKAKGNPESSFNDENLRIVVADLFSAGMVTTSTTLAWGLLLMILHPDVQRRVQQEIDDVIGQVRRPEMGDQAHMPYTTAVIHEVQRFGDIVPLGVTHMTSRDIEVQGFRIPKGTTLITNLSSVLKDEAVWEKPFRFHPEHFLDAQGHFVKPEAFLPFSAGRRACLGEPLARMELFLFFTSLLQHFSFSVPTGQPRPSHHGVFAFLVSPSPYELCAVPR

| Structure (SMILES) | IC50 [1] | half-life at 1 μM [2] |
| --- | --- | --- |
| Cc1ncccc1-n1c(=O)c2ncn(C)c2c2ccc(C(F)(F)F)nc21 (atropisomer, axis not shown) [Compound 20, 1-methyl-5-(2-methylpyridin-3-yl)-7-(trifluoromethyl)-1,5-dihydro-4H-imidazo[4,5-c][1,8]naphthyridin-4-one] | > 30 µM | > 5 h |
| Cc1ncccc1-n1c(=O)c2ncoc2c2ccc(C(F)(F)F)nc21 [Compound 40, 5-(2-methylpyridin-3-yl)-7-(trifluoromethyl)oxazolo[4,5-c][1,8]naphthyridin-4(5H)-one] | > 30 µM | > 5 h |
| Cn1cnc2c(=O)n(-c3cccc(F)c3Cl)c3cc(Cl)ccc3c21 [Compound 39, 7-chloro-5-(2-chloro-3-fluorophenyl)-1-methyl-1,5-dihydro-4H-imidazo[4,5-c]quinolin-4-one] | > 30 µM | – |
| Cn1cnc2c(=O)n(-c3cccnc3C3CC3)c3cc(Cl)ccc3c21 (single isomer, unassigned) [Compound 49-P2, 7-chloro-5-(2-cyclopropylpyridin-3-yl)-1-methyl-1,5-dihydro-4H-imidazo[4,5-c]quinolin-4-one] | > 30 µM | 3.78 h |
| Cn1cnc2c(=O)n(-c3cccc(F)c3Cl)c3nc(C(F)(F)F)ccc3c21 (atropisomer, axis not shown) [Compound 25, 5-(2-chloro-3-fluorophenyl)-1-methyl-7-(trifluoromethyl)-1,5-dihydro-4H-imidazo[4,5-c][1,8]naphthyridin-4-one] | > 30 µM | > 5 h |

More lines, now with the values ahead:

| IC50 [1] | half-life at 1 μM [2] | Structure (SMILES) |
| --- | --- | --- |
| > 30 µM | > 5 h | Cn1cnc2c(=O)n(-c3cccnc3C3CC3)c3cc(C(F)(F)F)ccc3c21 (single isomer, unassigned) [Compound 48-P2, 5-(2-cyclopropylpyridin-3-yl)-1-methyl-7-(trifluoromethyl)-1,5-dihydro-4H-imidazo[4,5-c]quinolin-4-one] |
| > 30 µM | > 5 h | Cc1ncccc1-n1c(=O)c2ncn(C)c2c2ccc(C(F)(F)F)cc21 [Compound 45, 1-methyl-5-(2-methylpyridin-3-yl)-7-(trifluoromethyl)-1,5-dihydro-4H-imidazo[4,5-c]quinolin-4-one] |
| > 30 µM | > 5 h | O=c1c2ncoc2c2ccc(C(F)(F)F)nc2n1-c1cccnc1C1CC1 (single isomer, unassigned) [Compound 81-P2, 5-(2-cyclopropylpyridin-3-yl)-7-(trifluoromethyl)oxazolo[4,5-c][1,8]naphthyridin-4(5H)-one] |
| > 30 µM | 4.26 h | Cn1cnc2c(=O)n(-c3cccnc3C3CC3)c3nc(C(F)(F)F)ccc3c21 (single isomer, unassigned) [Compound 42-P2, 5-(2-cyclopropylpyridin-3-yl)-1-methyl-7-(trifluoromethyl)-1,5-dihydro-4H-imidazo[4,5-c][1,8]naphthyridin-4-one] |
| 18.2 µM | > 5 h | Cn1cnc2c(=O)n(-c3cccnc3C(F)(F)F)c3nc(C(F)(F)F)ccc3c21 (single isomer, unassigned) [Compound 41-P2, 1-methyl-7-(trifluoromethyl)-5-(2-(trifluoromethyl)pyridin-3-yl)-1,5-dihydro-4H-imidazo[4,5-c][1,8]naphthyridin-4-one] |
| > 30 µM | > 5 h | Cn1cnc2c(=O)n(-c3cccc(F)c3Cl)c3nc(C(F)(F)F)ccc3c21 (single isomer, unassigned) [Compound 25-P2, 5-(2-chloro-3-fluorophenyl)-1-methyl-7-(trifluoromethyl)-1,5-dihydro-4H-imidazo[4,5-c][1,8]naphthyridin-4-one] |
